Results as given in ChEMBL document CHEMBL3044663, “Synthesis and antimicrobial activities of novel bisacridine-1,8-dione derivatives” (2011).
The source made the active and inactive calls. No cut-off for these calls is given here.

Columns and labels:
Format in all cases: functional
[1] = tested on: Candida albicans; test: Antifungal activity against Candida albicans 16231 after 24 hr by disk diffusion method; for DIZ: test concentration or dose not given here
[2] = tested on: Saccharomyces cerevisiae; test: Antifungal activity against Saccharomyces cerevisiae TP (3-2) after 24 hr by disk diffusion method; note: test concentration or dose not given here
[3] = tested on: Pseudomonas aeruginosa; test: Antibacterial activity against Pseudomonas aeruginosa ATCC 27853 after 24 hr by disk diffusion method; for DIZ: test concentration or dose not given here
[4] = tested on: Staphylococcus epidermidis; test: Antibacterial activity against Staphylococcus epidermidis Mu 30 after 24 hr by disk diffusion method; note: test concentration or dose not given here
[5] = tested on: Escherichia coli; test: Antibacterial activity against Escherichia coli ATCC 35218 after 24 hr by disk diffusion method; for DIZ: test concentration or dose not given here
[6] = tested on: Bacillus cereus; test: Antibacterial activity against Bacillus cereus RSKK 863 after 24 hr by disk diffusion method; note: test concentration or dose not given here
[7] = tested on: Staphylococcus aureus; test: Antibacterial activity against Staphylococcus aureus ATCC 25923 after 24 hr by disk diffusion method; note: test concentration or dose not given here
[8] = tested on: Salmonella; test: Antibacterial activity against Salmonella 21.3 after 24 hr by disk diffusion method; for DIZ: test concentration or dose not given here
[9] = tested on: Bacillus subtilis; test: Antibacterial activity against Bacillus subtilis RSKK 240 after 24 hr by disk diffusion method; note: test concentration or dose not given here
[10] = tested on: Shigella sonnei; test: Antibacterial activity against Shigella sonnei RSKK 877 after 24 hr by disk diffusion method; for DIZ: test concentration or dose not given here; for diameter of the inhibition zone (DIZ): test concentration or dose not given here

| Compound | diameter of the inhibition zone (DIZ) [1] | diameter of the inhibition zone (DIZ) [2] | diameter of the inhibition zone (DIZ) [3] | diameter of the inhibition zone (DIZ) [4] | diameter of the inhibition zone (DIZ) [5] | diameter of the inhibition zone (DIZ) [6] | diameter of the inhibition zone (DIZ) [7] | diameter of the inhibition zone (DIZ) [8] | diameter of the inhibition zone (DIZ) [9] | diameter of the inhibition zone (DIZ) [10] | inhibition zone (IZ) [3] | inhibition zone (IZ) [5] | inhibition zone (IZ) [8] | inhibition zone (IZ) [10] |
| --- | --- | --- | --- | --- | --- | --- | --- | --- | --- | --- | --- | --- | --- | --- |
| COc1cccc(N2C3=C(C(=O)CCC3)C(c3cccc(C4C5=C(CCCC5=O)N(c5cccc(OC)c5)C5=C4C(=O)CCC5)c3)C3=C2CCCC3=O)c1 | 12 mm | 11 mm | 9 mm | 11 mm | 14 mm | inactive | 16 mm | 12 mm | 11 mm | 10 mm |  |  |  |  |
| CC1(C)CC(=O)C2=C(C1)N(c1ccc(Cl)cc1)C1=C(C(=O)CC(C)(C)C1)C2c1ccc(C2C3=C(CC(C)(C)CC3=O)N(c3ccc(Cl)cc3)C3=C2C(=O)CC(C)(C)C3)cc1 | 10 mm | 14 mm | 9 mm | 7 mm | 12 mm | inactive | 9 mm | 12 mm | inactive | 10 mm |  |  |  |  |
| COc1ccccc1N1C2=C(C(=O)CC(C)(C)C2)C(c2cccc(C3C4=C(CC(C)(C)CC4=O)N(c4ccccc4OC)C4=C3C(=O)CC(C)(C)C4)c2)C2=C1CC(C)(C)CC2=O | 15 mm | 14 mm | 10 mm | 13 mm | 14 mm | 13 mm | 9 mm | 8 mm | 8 mm | 12 mm |  |  |  |  |
| Cc1cccc(N2C3=C(C(=O)CCC3)C(c3cccc(C4C5=C(CCCC5=O)N(c5cccc(C)n5)C5=C4C(=O)CCC5)c3)C3=C2CCCC3=O)n1 | 14 mm | 17 mm | 9 mm | 8 mm | 12 mm | inactive | 18 mm | 9 mm | inactive | 9 mm |  |  |  |  |
| CC(=O)N1CCN(c2ccc(OCC3COC(Cn4ccnc4)(c4ccc(Cl)cc4Cl)O3)cc2)CC1 (configuration not stated) [KETOCONAZOLE] | 21 mm | 24 mm |  |  |  |  |  |  |  |  |  |  |  |  |
| COc1ccccc1N1C2=C(C(=O)CCC2)C(c2cccc(C3C4=C(CCCC4=O)N(c4ccccc4OC)C4=C3C(=O)CCC4)c2)C2=C1CCCC2=O | inactive | inactive | inactive | inactive | inactive | inactive | inactive | inactive | inactive | inactive |  |  |  |  |
| CC1(C)CC(=O)C2=C(C1)N(c1cccc(C(=O)O)c1)C1=C(C(=O)CC(C)(C)C1)C2c1cccc(C2C3=C(CC(C)(C)CC3=O)N(c3cccc(C(=O)O)c3)C3=C2C(=O)CC(C)(C)C3)c1 | 16 mm | 16 mm | 9 mm | inactive | 9 mm | 8 mm | 10 mm | 11 mm | 9 mm | 10 mm |  |  |  |  |
| N#Cc1ccccc1N1C2=C(C(=O)CCC2)C(c2cccc(C3C4=C(CCCC4=O)N(c4ccccc4C#N)C4=C3C(=O)CCC4)c2)C2=C1CCCC2=O | 13 mm | 20 mm | 14 mm | 10 mm | 8 mm | inactive | 10 mm | 11 mm | inactive | 10 mm |  |  |  |  |
| O=C1CCCC2=C1C(c1cccc(C3C4=C(CCCC4=O)N(c4ccc(C(=O)O)cc4)C4=C3C(=O)CCC4)c1)C1=C(CCCC1=O)N2c1ccc(C(=O)O)cc1 | 10 mm | inactive | 10 mm | 12 mm | 9 mm | inactive | 11 mm | 8 mm | 8 mm | 9 mm |  |  |  |  |
| CC1(C)S[C@@H]2[C@H](NC(=O)[C@H](N)c3ccccc3)C(=O)N2[C@H]1C(=O)O [AMPICILLIN] |  |  |  |  | 27 mm | 20 mm | 24 mm | 23 mm | 24 mm | 22 mm |  |  |  |  |
| O=C1CCCC2=C1C(c1cccc(C3C4=C(CCCC4=O)N(c4cccc(C(=O)O)c4)C4=C3C(=O)CCC4)c1)C1=C(CCCC1=O)N2c1cccc(C(=O)O)c1 | 14 mm | 11 mm | 9 mm | inactive | 12 mm | 8 mm | inactive | 11 mm | 9 mm | inactive |  |  |  |  |
| COc1cccc(N2C3=C(C(=O)CC(C)(C)C3)C(c3cccc(C4C5=C(CC(C)(C)CC5=O)N(c5cccc(OC)c5)C5=C4C(=O)CC(C)(C)C5)c3)C3=C2CC(C)(C)CC3=O)c1 | inactive | inactive | 7 mm | inactive | 10 mm | 13 mm | inactive | inactive | inactive | 12 mm |  |  |  |  |
| CC1(C)CC(=O)C2=C(C1)N(c1ccccc1C#N)C1=C(C(=O)CC(C)(C)C1)C2c1cccc(C2C3=C(CC(C)(C)CC3=O)N(c3ccccc3C#N)C3=C2C(=O)CC(C)(C)C3)c1 | 14 mm | 14 mm | 9 mm | 9 mm | 12 mm | inactive | 12 mm | 9 mm | inactive | 10 mm |  |  |  |  |
| N#Cc1cccc(N2C3=C(C(=O)CCC3)C(c3cccc(C4C5=C(CCCC5=O)N(c5cccc(C#N)c5)C5=C4C(=O)CCC5)c3)C3=C2CCCC3=O)c1 | 27 mm | 17 mm | 10 mm | inactive | 8 mm | inactive | 9 mm | 10 mm | inactive | 12 mm |  |  |  |  |
| GENTAMICIN |  |  |  |  |  |  |  |  |  |  | 20 mm | 15 mm | 10 mm | 11 mm |
| CC1(C)CC(=O)C2=C(C1)N(c1cccc(C#N)c1)C1=C(C(=O)CC(C)(C)C1)C2c1cccc(C2C3=C(CC(C)(C)CC3=O)N(c3cccc(C#N)c3)C3=C2C(=O)CC(C)(C)C3)c1 | 16 mm | 14 mm | 8 mm | 8 mm | 13 mm | inactive | 10 mm | 10 mm | inactive | 9 mm |  |  |  |  |
| CC1(C)CC(=O)C2=C(C1)N(c1ccc(C(=O)O)cc1)C1=C(C(=O)CC(C)(C)C1)C2c1cccc(C2C3=C(CC(C)(C)CC3=O)N(c3ccc(C(=O)O)cc3)C3=C2C(=O)CC(C)(C)C3)c1 | 12 mm | 13 mm | inactive | 11 mm | 10 mm | 9 mm | inactive | 9 mm | 11 mm | 11 mm |  |  |  |  |
| CC1(C)CC(=O)C2=C(C1)N(c1ccc(Br)cc1)C1=C(C(=O)CC(C)(C)C1)C2c1ccc(C2C3=C(CC(C)(C)CC3=O)N(c3ccc(Br)cc3)C3=C2C(=O)CC(C)(C)C3)cc1 | 11 mm | 16 mm | 10 mm | 10 mm | 10 mm | inactive | 12 mm | 10 mm | inactive | 12 mm |  |  |  |  |
